In the experiment the target is Recombinant human DPP-IV (Homo sapiens, UniProt P27487). Nature of the experiment: DPP-IV assay in vitro (H-Ala-Pro-AFC fluorescence). Type of experiment: biochemical. Particulars: recombinant human DPP-IV 7.8 ng/ml, 30 min pre-incubation, H-Ala-Pro-AFC 50 μM. The protocol: DPP-IV Assay Solutions of test compounds in varying concentrations (10^−5 mol/L, 10^−6 mol/L, 10^−7 mol/L, 10^−8 mol/L, 10^−9 mol/L, 10^−10 mol/L, 10^−11 mol/L, and 10^−12 mol/L) were prepared in dimethyl sulfoxide (DMSO) and then diluted into assay buffer comprising: 10 mM Tris-HCl pH 8.0, 0.2 M NaCl, and 0.1% BSA. Recombinant human DPP-IV (7.8 ng/ml final concentration) was added to the dilutions and pre-incubated for 30 mins at room temperature before the reaction was initiated with H-Ala-Pro-AFC (50 μM final concentration). The total volume of the reaction mixture was 100 μl.
Sequence of Recombinant human DPP-IV (P27487 whole entry): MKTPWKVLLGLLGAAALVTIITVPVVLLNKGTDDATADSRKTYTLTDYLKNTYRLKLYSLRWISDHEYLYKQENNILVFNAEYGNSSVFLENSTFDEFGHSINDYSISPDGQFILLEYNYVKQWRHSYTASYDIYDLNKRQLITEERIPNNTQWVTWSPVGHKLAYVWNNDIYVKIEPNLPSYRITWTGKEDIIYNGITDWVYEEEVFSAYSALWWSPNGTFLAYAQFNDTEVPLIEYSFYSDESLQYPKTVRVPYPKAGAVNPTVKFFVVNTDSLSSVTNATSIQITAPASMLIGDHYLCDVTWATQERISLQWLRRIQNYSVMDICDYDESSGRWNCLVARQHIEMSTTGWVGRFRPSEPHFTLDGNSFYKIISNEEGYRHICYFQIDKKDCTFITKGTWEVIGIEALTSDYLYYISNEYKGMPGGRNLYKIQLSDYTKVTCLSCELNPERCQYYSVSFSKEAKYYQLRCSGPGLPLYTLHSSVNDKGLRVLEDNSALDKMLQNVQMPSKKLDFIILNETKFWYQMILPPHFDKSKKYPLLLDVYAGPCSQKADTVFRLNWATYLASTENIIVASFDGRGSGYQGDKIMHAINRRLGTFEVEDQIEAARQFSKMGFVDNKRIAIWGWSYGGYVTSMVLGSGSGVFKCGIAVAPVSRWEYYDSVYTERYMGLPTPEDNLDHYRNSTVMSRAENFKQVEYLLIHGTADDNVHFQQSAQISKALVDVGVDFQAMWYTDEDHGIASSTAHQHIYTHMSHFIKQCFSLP
The fluorescence of the mixture was measured after 30 minutes (excitation at 405 nm; emission at 535 nm). Inhibition constants (IC50) were calculated by GraphPad Prism.

The term IC50 denotes the point on the concentration scale where inhibition reaches its midpoint. Turning to `Cc1nnc(N2CCC[C@@H](N)C2)n(Cc2ccccc2C#N)c1=O` [Example 1, (R)-2-((3-(3-aminopiperidin-1-yl)-6-methyl-5-oxo-1,2,4-triazin-4(5H)-yl)methyl)benzonitrile], the IC50 was 22 nM.

Turning to `Cc1nnc(N2CCC[C@@H](N)C2)n(Cc2cc(F)ccc2Br)c1=O` [Example 2, (R)-3-(3-aminopiperidin-1-yl)-4-(2-bromo-5-fluorobenzyl)-6-methyl-1,2,4-triazin-5(4H)-one], the concentration for half-maximal inhibition (IC50) was found to be 242 nM.

Regarding `Cc1nnc(N2CCC[C@@H](N)C2)n(Cc2cc(F)ccc2Cl)c1=O` [Example 4, (R)-3-(3-aminopiperidin-1-yl)-4-(2-chloro-5-fluorobenzyl)-6-methyl-1,2,4-triazin-5(4H)-one], the IC50 stood at 640 nM.

The values above are taken from US9340523B2, “Certain dipeptidyl peptidase inhibitors” (FOCHON PHARMA, INC., priority 2009, dated 2016).
